In patent EP2896688A1 (Centre National de la Recherche Scientifique (CNRS), priority 2014, dated 2015):
Values belong to the compound of their own block, whether it stands above or below them.

Columns and labels:
[1] = tested on: E13.5 rat embryonic pancreases; assay: Number of NGN3-positive cells by immunohistochemistry in cultured embryonic pancreases; assay type: cell-based; settings: for number of NGN3-positive endocrine progenitor cells, decrease: 1 day, NAC at 10 µM or CCCP at 1 µM
Experimental: (§1) The embryos were harvested on E13.5. The dorsal pancreatic bud was dissected, as described previously (Attali et al., 2007). For the depletion of the mesenchyme, the digestive tract was incubated with 0.5 mg/ml collagenase A (Roche, Meyaln, France) at 37°c for 30 min, then washed several times with Hank's balanced solution (Invitrogen, Cergy-Pontoise, France) at 4°c, and the epithelium was mechanically separated from the mesenchyme using needles on 0.25% agar, 25% Hank's balanced solution and 75% RPMI gel (Life Technologies, Invitrogen) in a petri dish. Pancreatic rudiments (epithelium with mesenchyme) or epithelia were then cultured at the air-medium interface on Millicell culture plate inserts (Millipore, Molsheim, France) in Petri dishes containing RPMI 1640 (Invitrogen) supplemented with penicillin (100 U/ml), streptomycin ([…]), HEPES (10 mM), l-glutamine (2 mM), nonessential amino acids (1; Invitrogen, Cergy-Pontoise, France) and 10% heat-inactivated calf serum (Hyclone, South Logan, UT, USA) for one to 7 days. […] Glucose (Sigma, Saint-Quentin Fallavier, France) was used at 20 mM/l and the inhibitor of the ERK pathway (U0126, Cell Sinaling Technologies Ozyme, Saint-Quentin, France) at 10 µmol/l. Cultures were maintained at 37°C in humidified 95% air and 5% CO2.
Ad-CMV-GFP (ref 1060, Vector Biolabs, Philadelphia, PA, USA) and Ad-Catalase (ref 1475, Vector Biolabs) adenoviruses were used to infect the embryonic Wistar rat epithelia. Tissues were incubated with viral particles at the multiplicity of infection of 1000 for 4 h at 37°C in RPMI 1640 as described in (Heinis et al.2012). After infection, tissues were washed twice in HBSS and cultured at the air-medium interface.
Tissues were fixed in 10% formalin and processed for immunohistochemistry, as described previously (Attali et al., 2007). The following antibodies were used: mouse anti-insulin (1:2000; Sigma-Aldrich), rabbit anti-PDX1 (1:1,000), rabbit anti-amylase (Sigma-Aldrich, 1:300), mouse anti-E-cadherin (1:100, BD Biosciences, Le Pont de Claix, France), mouse anti-BrdU (1:2, Amersham, Velizy-Villacoublay, France), rabbit anti-NGN3 (1:1000) (Guillemain et al., 2007), rabbit anti-catalase (1:1000, Rockland Immunochemicals, Gilbertsville, PA USA). The fluorescent secondary antibodies were fluorescein-isothiocyanate anti-rabbit and Texas-red anti-mouse antibodies (1:200, Jackson Immunoresearch, Suffolk, England), and Atexa-fluor anti-rabbit antibody (1:400, Biogenex, Fremont, CA, USA). For NGN3, revelation was performed using the vectastain ABC kit (Vector LAB, Peterborough, England). Photographs were taken using a fluorescence microscope (Leitz DMRB; Leica) and digitized using a Hamamatsu (Middlesex, NJ, USA) C5810 cooled 3CCD camera.
(§2) To quantify the number of NGN3-positive cells, NGN3-positive cells were counted on all sections. Statistical significance was determined using Student's t test.

[2] = tested on: E13.5 rat embryonic pancreases; assay: Beta cell development (insulin staining surface) in cultured embryonic pancreases; assay type: cell-based; settings: for insulin staining surface: day 7, NAC at 10 µM or CCCP at 1 µM
Source text: The embryos were harvested on E13.5. […] On every image, the surface area of insulin staining was quantified using ImageJ as described in (Heinis et al.).

[3] = tested on: Nrf2; settings: pancreases treated with H2O2; data not shown
Experimental: Total RNA was purified using the Rneasy microkit (Qiagen, Courtaboeuf, France). The cDNA was generated using Superscript reagents (Invitrogen), and the real-time PCR was performed on a 7300 real-time PCR system (Applied Biosystem, Invitrogen) with an SYBR Green PCR master mix. The oligonucleotide sequences for RT-PCR are available on request.

[4] = tested on: ERK1/2; assay: Western blot of ERK1/2 and MEK phosphorylation in cultured embryonic pancreases; assay type: cell-based, rat
Experimental: The embryos were harvested on E13.5. The dorsal pancreatic bud was dissected, as described previously (Attali et al., 2007). […] Glucose (Sigma, Saint-Quentin Fallavier, France) was used at 20 mM/l and the inhibitor of the ERK pathway (U0126, Cell Sinaling Technologies Ozyme, Saint-Quentin, France) at 10 µmol/l.
For Western blotting analysis, cells were lysed in Laemmli buffer. Proteins (20µg) were resolved by SDS/PAGE and electrophoretically transferred onto PVDF membrane (Bio-Rad, Hercules, CA, USA). After blocking with milk, membranes were probed with rat anti-p44/42 MAPK (Erk1/2), mouse anti-Phospho-p44/42 MAPK (Erk1/2) (Thr202/Tyr204), anti-Phospho-MEK (all from Cell Signaling Ozyme, ST Quentin en Yvelines, France) and mouse anti-actin (Sigma-Aldrich).Immunoreactive bands were visualized with the SuperSignal System (Pierce; Fisher Scientific, Illkirch, France).
The Mitogen Activated Protein Kinase (MAPK) ERK1/2 pathway, which was recently shown to be sensitive to ROS production in several cell types (Zhang et al., 2013) was examined. […] As a positive control, pancreases were also treated with 20 mM Glucose, an inducer of the ERK1/2 phosphorylation (Briaud et al., 2003). […] To further characterize ERK1/2-dependent effect of ROS on pancreas development, an ERK1/2 inhibitor was used (U0126). To validate the efficiency of the inhibitor, pancreatic explants were first cultured with glucose, in the presence or in the absence of U0126. Activation of ERK1/2 by glucose was abolished in the presence of U0126 (Figure 8A), confirming the efficiency of U0126.

[5] = tested on: Notch receptors 1 and 2, the Notch target Hes 1, the Notch ligands Jagged 1, Jagged 2, Delta-like 1; settings: one day, 50 µM H2O2
Experimental: as §1
Total RNA was purified using the Rneasy microkit (Qiagen, Courtaboeuf, France). […]

[6] = tested on: beta cells; settings: concentrations of H2O2 used
[7] = tested on: early PDX1+ progenitors; settings: 1 day of culture, 50 µM H2O2
Experimental: The embryos were harvested on E13.5. The dorsal pancreatic bud was dissected, as described previously (Attali et al., 2007). For the depletion of the mesenchyme, the digestive tract was incubated with 0.5 mg/ml collagenase A (Roche, Meyaln, France) at 37°c for 30 min, then washed several times with Hank's balanced solution (Invitrogen, Cergy-Pontoise, France) at 4°c, and the epithelium was mechanically separated from the mesenchyme using needles on 0.25% agar, 25% Hank's balanced solution and 75% RPMI gel (Life Technologies, Invitrogen) in a petri dish. Pancreatic rudiments (epithelium with mesenchyme) or epithelia were then cultured at the air-medium interface on Millicell culture plate inserts (Millipore, Molsheim, France) in Petri dishes containing RPMI 1640 (Invitrogen) supplemented with penicillin (100 U/ml), streptomycin ([…]), HEPES (10 mM), l-glutamine (2 mM), nonessential amino acids (1; Invitrogen, Cergy-Pontoise, France) and 10% heat-inactivated calf serum (Hyclone, South Logan, UT, USA) for one to 7 days. […]
Tissues were fixed in 10% formalin and processed for immunohistochemistry, as described previously (Attali et al., 2007). […] Photographs were taken using a fluorescence microscope (Leitz DMRB; Leica) and digitized using a Hamamatsu (Middlesex, NJ, USA) C5810 cooled 3CCD camera.
(§3) Statistical significance was determined using Student's t test.

[8] = tested on: E13.5 rat embryonic pancreases; settings: one day of culture, 50 µM H2O2
Experimental: as §1, with “CO2. […]” for “CO2.”
as §3

[9] = tested on: embryonic pancreases; assay: NAC given to pregnant rats in drinking water, analysis of embryonic pancreases; assay type: in vivo, Wistar Rats; settings: pregnant rats treated with 10 mM NAC from E13.5
Source text: Pregnant Wistar Rats were purchased from the Janvier Breeding center (CERJ Janvier, Le Genest Saint-Ile, France). The animals had free access to food pellets and water. Embryonic day 0.5 (E0.5) was considered the first day postcoïtum. Pregnant female were killed by CO2 asphyxiation according to the guidelines of the French Animal Care Committee.
N-Acetyl cystein (Sigma, Saint-Quentin Fallavier, France) treatment was initiated during embryonic life at E13.5 and given into drinking water to pregnant females.
For NGN3, revelation was performed using the vectastain ABC kit (Vector LAB, Peterborough, England).
To quantify the absolute number of insulin-expressing cells, all sections of each pancreatic rudiment were digitized. On every image, the surface area of insulin staining was quantified using ImageJ as described in (Heinis et al.).
as §2
Female pregnant rats at 13.5 days postcoitus were treated with NAC, and the number of NGN3-positive cells was measured.

SMILES: N#CC(C#N)=NNc1cccc(Cl)c1 [CCCP, Carbonyl cyanide m-chlorophenyl hydrazone]
number of NGN3-positive endocrine progenitor cells, decrease [1]: ~2 fold
insulin staining surface [2]: decrease

expression of Notch pathway genes vs controls [5]: No difference
SMILES: OO [H2O2, hydrogen peroxide]
Nrf2 RNA levels [3]: slight increase
activation of the ERK1/2 pathway ([4]; 5 or 15 minutes, H2O2 50 µM or 20 mM Glucose): induced
time after addition at which ERK1/2 activation was observed ([4]; H2O2 50 µM): five
oxidative stress or damage in the resulting beta cells [6]: did not produce detectable oxidative stress or damage
rate of cell proliferation (BrdU incorporation) vs controls [7]: similar
number of NGN3 expressing cells ([1]; H2O2 at 50 µM, without U0126): increased
number of NGN3-positive cells, increase ([1]; day 1, 50 µM H2O2): ~2 fold
insulin surface, larger than controls ([2]; H2O2 50µM, analyzed seven days later): 2.6 fold
rate of apoptosis vs controls [8]: No difference

SMILES: CC(=O)N[C@@H](CS)C(=O)O [NAC, N-Acetyl cystein]
number of NGN3-positive endocrine progenitor cells, decrease [1]: ~2 fold
insulin staining surface [2]: decrease
reduction of the beta cell mass ([9]; at E20.5): 2.5 fold
number of NGN3-positive cells, decrease compared to controls ([9]; embryonic pancreases analyzed at E20.5): 1.6 fold

SMILES: N#CC(=C(/N)Sc1ccccc1N)/C(C#N)=C(\N)Sc1ccccc1N [U0126, reference compound]
activation of ERK1/2 by glucose in the presence of the inhibitor ([4]; 20 mM Glucose, U0126 10 µmol/l): abolished
activation of the ERK1/2 pathway by H2O2 in the presence of the inhibitor ([4]; H2O2 50 µM, U0126 10 µmol/l): blunted
H2O2-induced increase of NGN3 expressing cells in the presence of the inhibitor ([1]; H2O2 at 50 µM with U0126): abrogated
